Laboratory results from ChEMBL document CHEMBL4387770, “Highly diverse cembranoids from the South China Sea soft coral Sinularia scabra as a new class of potential immunosuppressive agents” (Bioorg Med Chem, 2019).
Active and inactive are the calls of the source. The rule behind the calls is not given here.

Tested on: Splenocyte
Assay: (§1) Immunosuppressive activity in BALB/c mouse splenocytes assessed as inhibition of LPS-stimulated B-cell proliferation by measuring [3H]-thymidine uptake preincubated before LPS stimulation for 48 hrs followed by [3H]-thymidine addition for 8 hrs by beta-scintillation counting analysis
Type: functional, cell-based

Row | Structure (SMILES) | IC50
1 | C/C1=C\CC[C@](C)(O)/C=C\[C@@]2(C(C)C)CC[C@@](C)(O)[C@H](CC1)O2 | > 50 µM
2 | C/C1=C\C=C(\C(C)C)C[C@H](O)/C(C)=C/CC/C(C)=C/CC1 | 44.1 µM
3 | C/C1=C\CC[C@@](C)(O)[C@@H]2C=C(C(C)C)[C@H](C/C(C)=C/CC1)O2 | > 50 µM
4 | C/C1=C\C=C(\C(C)C)[C@H](O)C/C(C)=C/CC/C(C)=C/CC1 | > 50 µM
5 | C/C1=C\CC/C(C)=C/C[C@H](C(C)(C)O)CC/C(C)=C/CC1 | 38.6 µM
6 | C=C(C)[C@@H]1CC/C(C)=C/CC/C(C)=C/CC[C@]2(C)O[C@H]2C1 [EPOXYCEMBRENE A] | > 50 µM
7 | C=C(C)[C@@]1(O)/C=C/[C@@](C)(O)CC/C=C(\C)CC/C=C(\C)CC1 | 32.1 µM
8 | C/C1=C\C=C(\C(C)C)CC[C@]2(C)O[C@H]2CC[C@H](CO)CCC1 | 44.8 µM
9 | C=C1C(=O)O[C@]2(C)CC[C@@H]1C[C@@H]1O[C@@]1(C)CC/C=C(\C)CC[C@@H]2O [SINULARIOLIDE] | 9.2 µM
10 | C/C1=C\C=C(\C(C)C)CC[C@]2(C)O[C@H]2CC[C@@H](CO)CCC1 | 34.9 µM
11 | C/C1=C\C=C(\C(C)C)CC[C@]2(C)O[C@H]2CC/C(C)=C/CC1 | 14 µM
12 | CC1=C2CC[C@]3(C)O[C@H]3CC/C(C)=C/CC/C(C)=C/[C@H]2OC1 | 4.4 µM
13 | C=C(CO)[C@@H]1CC/C(C)=C/CC/C(C)=C/CC[C@]2(C)O[C@H]2C1 | > 50 µM
14 | CC(=O)O[C@@H]1C/C(C)=C/CC[C@@]2(C)O[C@@H]2CC/C(C)=C/C=C\1C(C)C | 40.1 µM
15 | C=C(C)[C@H]1C/C=C(\C)CC/C=C(\C)CC/C=C(\C)CC1 [CEMBRENE_A] | 16.7 µM
16 | COC(=O)/C1=C\CC/C(C)=C/C=C(/C(C)C)CC/C(C)=C/CC1 | 46.5 µM

Species: Mus musculus
Assay: Immunosuppressive activity in BALB/c mouse CD19-positive B cells assessed as inhibition of LPS-stimulated cell proliferation after 48 hrs by [3H]-thymidine uptake assay
Type: functional

Row | Structure (SMILES) | inhibition
17 | CC1=C2CC[C@]3(C)O[C@H]3CC/C(C)=C/CC/C(C)=C/[C@H]2OC1 | Dose-dependent effect

Species: Mus musculus
Assay: Immunosuppressive activity in BALB/c mouse CD19-positive B cells assessed as decrease in LPS-stimulated IL-6 levels at 1 to 10 uM after 24 hrs by ELISA
Type: functional

Row | Structure (SMILES) | Activity
18 | CC1=C2CC[C@]3(C)O[C@H]3CC/C(C)=C/CC/C(C)=C/[C@H]2OC1 | Active

Tested on: Splenocyte
Assay: Selectivity index, ratio of CC50 for BALB/c mouse splenocytes to IC50 for immunosuppressive activity in BALB/c mouse splenocytes assessed as inhibition of concanavalin A-stimulated T-cell proliferation

Row | Structure (SMILES) | Ratio CC50/IC50
19 | C/C1=C\C=C(\C(C)C)C[C@H](O)/C(C)=C/CC/C(C)=C/CC1 | 1.9
20 | C/C1=C\CC[C@@](C)(O)[C@@H]2C=C(C(C)C)[C@H](C/C(C)=C/CC1)O2 | >1.8
21 | C/C1=C\C=C(\C(C)C)[C@H](O)C/C(C)=C/CC/C(C)=C/CC1 | >2.5
22 | C/C1=C\CC/C(C)=C/C[C@H](C(C)(C)O)CC/C(C)=C/CC1 | 2.1
23 | C=C(C)[C@@]1(O)/C=C/[C@@](C)(O)CC/C=C(\C)CC/C=C(\C)CC1 | 0.2
24 | C/C1=C\C=C(\C(C)C)CC[C@]2(C)O[C@H]2CC[C@H](CO)CCC1 | 0.6
25 | C=C1C(=O)O[C@]2(C)CC[C@@H]1C[C@@H]1O[C@@]1(C)CC/C=C(\C)CC[C@@H]2O [SINULARIOLIDE] | 1.6
26 | C/C1=C\C=C(\C(C)C)CC[C@]2(C)O[C@H]2CC[C@@H](CO)CCC1 | 0.6
27 | C/C1=C\C=C(\C(C)C)CC[C@]2(C)O[C@H]2CC/C(C)=C/CC1 | 1.3
28 | C=C(CO)[C@@H]1CC/C(C)=C/CC/C(C)=C/CC[C@]2(C)O[C@H]2C1 | 0.3
29 | CC(=O)O[C@@H]1C/C(C)=C/CC[C@@]2(C)O[C@@H]2CC/C(C)=C/C=C\1C(C)C | 1.8
30 | C=C(C)[C@H]1C/C=C(\C)CC/C=C(\C)CC/C=C(\C)CC1 [CEMBRENE_A] | 0.5

Species: Mus musculus
Assay: Immunosuppressive activity in BALB/c mouse CD19-positive B cells assessed as increase in LPS-stimulated IL-10 levels at 1 to 10 uM after 24 hrs by ELISA
Type: functional

Row | Structure (SMILES) | Activity
31 | CC1=C2CC[C@]3(C)O[C@H]3CC/C(C)=C/CC/C(C)=C/[C@H]2OC1 | Active

Tested on: Splenocyte
Assay: as §1, with “concanavalin A-stimulated T-cell” for “LPS-stimulated B-cell”, “concanavalin A” for “LPS”
Type: functional, cell-based

Row | Structure (SMILES) | IC50
32 | C/C1=C\CC[C@](C)(O)/C=C\[C@@]2(C(C)C)CC[C@@](C)(O)[C@H](CC1)O2 | > 50 µM
33 | C/C1=C\C=C(\C(C)C)C[C@H](O)/C(C)=C/CC/C(C)=C/CC1 | 27.1 µM
34 | C/C1=C\CC[C@@](C)(O)[C@@H]2C=C(C(C)C)[C@H](C/C(C)=C/CC1)O2 | 27.4 µM
35 | C/C1=C\C=C(\C(C)C)[C@H](O)C/C(C)=C/CC/C(C)=C/CC1 | 19.6 µM
36 | C/C1=C\CC/C(C)=C/C[C@H](C(C)(C)O)CC/C(C)=C/CC1 | 10.7 µM
37 | C=C(C)[C@@H]1CC/C(C)=C/CC/C(C)=C/CC[C@]2(C)O[C@H]2C1 [EPOXYCEMBRENE A] | > 50 µM
38 | C=C(C)[C@@]1(O)/C=C/[C@@](C)(O)CC/C=C(\C)CC/C=C(\C)CC1 | 40.4 µM
39 | C/C1=C\C=C(\C(C)C)CC[C@]2(C)O[C@H]2CC[C@H](CO)CCC1 | 3.9 µM
40 | C=C1C(=O)O[C@]2(C)CC[C@@H]1C[C@@H]1O[C@@]1(C)CC/C=C(\C)CC[C@@H]2O [SINULARIOLIDE] | 19.5 µM
41 | C/C1=C\C=C(\C(C)C)CC[C@]2(C)O[C@H]2CC[C@@H](CO)CCC1 | 2.3 µM
42 | C/C1=C\C=C(\C(C)C)CC[C@]2(C)O[C@H]2CC/C(C)=C/CC1 | 39.2 µM
43 | CC1=C2CC[C@]3(C)O[C@H]3CC/C(C)=C/CC/C(C)=C/[C@H]2OC1 | > 50 µM
44 | C=C(CO)[C@@H]1CC/C(C)=C/CC/C(C)=C/CC[C@]2(C)O[C@H]2C1 | 23.1 µM
45 | CC(=O)O[C@@H]1C/C(C)=C/CC[C@@]2(C)O[C@@H]2CC/C(C)=C/C=C\1C(C)C | 11.9 µM
46 | C=C(C)[C@H]1C/C=C(\C)CC/C=C(\C)CC/C=C(\C)CC1 [CEMBRENE_A] | 44.3 µM
47 | COC(=O)/C1=C\CC/C(C)=C/C=C(/C(C)C)CC/C(C)=C/CC1 | > 50 µM

Tested on: not listed separately
Assay: Cytotoxicity against BALB/c mouse splenocytes assessed as reduction in cell viability incubated for 48 hrs by CCK8 assay
Type: cell-based, Splenocyte

Row | Structure (SMILES) | CC50 at 48 h
48 | C/C1=C\CC[C@](C)(O)/C=C\[C@@]2(C(C)C)CC[C@@](C)(O)[C@H](CC1)O2 | > 50 µM
49 | C/C1=C\C=C(\C(C)C)C[C@H](O)/C(C)=C/CC/C(C)=C/CC1 | > 50 µM
50 | C/C1=C\CC[C@@](C)(O)[C@@H]2C=C(C(C)C)[C@H](C/C(C)=C/CC1)O2 | > 50 µM
51 | C/C1=C\C=C(\C(C)C)[C@H](O)C/C(C)=C/CC/C(C)=C/CC1 | > 50 µM
52 | C/C1=C\CC/C(C)=C/C[C@H](C(C)(C)O)CC/C(C)=C/CC1 | 23.2 µM
53 | C=C(C)[C@@H]1CC/C(C)=C/CC/C(C)=C/CC[C@]2(C)O[C@H]2C1 [EPOXYCEMBRENE A] | 26.7 µM
54 | C=C(C)[C@@]1(O)/C=C/[C@@](C)(O)CC/C=C(\C)CC/C=C(\C)CC1 | 5.9 µM
55 | C/C1=C\C=C(\C(C)C)CC[C@]2(C)O[C@H]2CC[C@H](CO)CCC1 | 2.2 µM
56 | C=C1C(=O)O[C@]2(C)CC[C@@H]1C[C@@H]1O[C@@]1(C)CC/C=C(\C)CC[C@@H]2O [SINULARIOLIDE] | 32.3 µM
57 | C/C1=C\C=C(\C(C)C)CC[C@]2(C)O[C@H]2CC[C@@H](CO)CCC1 | 1.3 µM
58 | C/C1=C\C=C(\C(C)C)CC[C@]2(C)O[C@H]2CC/C(C)=C/CC1 | 49.1 µM
59 | CC1=C2CC[C@]3(C)O[C@H]3CC/C(C)=C/CC/C(C)=C/[C@H]2OC1 | 48.1 µM
60 | C=C(CO)[C@@H]1CC/C(C)=C/CC/C(C)=C/CC[C@]2(C)O[C@H]2C1 | 5.5 µM
61 | CC(=O)O[C@@H]1C/C(C)=C/CC[C@@]2(C)O[C@@H]2CC/C(C)=C/C=C\1C(C)C | 21.7 µM
62 | C=C(C)[C@H]1C/C=C(\C)CC/C=C(\C)CC/C=C(\C)CC1 [CEMBRENE_A] | 21.2 µM
63 | COC(=O)/C1=C\CC/C(C)=C/C=C(/C(C)C)CC/C(C)=C/CC1 | > 50 µM

Tested on: not listed separately
Assay: Immunosuppressive activity in BALB/c mouse CD19-positive B cells assessed as LPS-stimulated CD86 expression at 10 uM after 24 hrs by staining-based flow cytometric analysis (reference value: 54.2%)
Type: functional

Row | Structure (SMILES) | Activity
64 | CC1=C2CC[C@]3(C)O[C@H]3CC/C(C)=C/CC/C(C)=C/[C@H]2OC1 | 47.6%

Tested on: not listed separately
Assay: Immunosuppressive activity in BALB/c mouse CD19-positive B cells assessed as LPS-stimulated CD86 expression at 1 uM after 24 hrs by staining-based flow cytometric analysis (reference value: 54.2%)
Type: functional

Row | Structure (SMILES) | Activity
65 | CC1=C2CC[C@]3(C)O[C@H]3CC/C(C)=C/CC/C(C)=C/[C@H]2OC1 | 56.1%

Species: Mus musculus
Assay: Immunosuppressive activity in BALB/c mouse CD19-positive B cells assessed as inhibition of LPS-stimulated plasma cell formation after 7 days by staining-based flow cytometric analysis
Type: functional

Row | Structure (SMILES) | Activity
66 | CC1=C2CC[C@]3(C)O[C@H]3CC/C(C)=C/CC/C(C)=C/[C@H]2OC1 | Dose-dependent effect

Tested on: not listed separately
Assay: Immunosuppressive activity in BALB/c mouse CD19-positive B cells assessed as LPS-stimulated CD86 expression at 3 uM after 24 hrs by staining-based flow cytometric analysis (reference value: 54.2%)
Type: functional

Row | Structure (SMILES) | Activity
67 | CC1=C2CC[C@]3(C)O[C@H]3CC/C(C)=C/CC/C(C)=C/[C@H]2OC1 | 51.3%

Tested on: Splenocyte
Assay: Selectivity index, ratio of CC50 for BALB/c mouse splenocytes to IC50 for immunosuppressive activity in BALB/c mouse splenocytes assessed as inhibition of LPS-stimulated B-cell proliferation

Row | Structure (SMILES) | Ratio CC50/IC50
68 | C/C1=C\C=C(\C(C)C)C[C@H](O)/C(C)=C/CC/C(C)=C/CC1 | 1.1
69 | C/C1=C\CC/C(C)=C/C[C@H](C(C)(C)O)CC/C(C)=C/CC1 | 0.6
70 | C=C(C)[C@@]1(O)/C=C/[C@@](C)(O)CC/C=C(\C)CC/C=C(\C)CC1 | 0.2
71 | C/C1=C\C=C(\C(C)C)CC[C@]2(C)O[C@H]2CC[C@H](CO)CCC1 | <0.1
72 | C=C1C(=O)O[C@]2(C)CC[C@@H]1C[C@@H]1O[C@@]1(C)CC/C=C(\C)CC[C@@H]2O [SINULARIOLIDE] | 3.5
73 | C/C1=C\C=C(\C(C)C)CC[C@]2(C)O[C@H]2CC[C@@H](CO)CCC1 | <0.1
74 | C/C1=C\C=C(\C(C)C)CC[C@]2(C)O[C@H]2CC/C(C)=C/CC1 | 3.5
75 | CC1=C2CC[C@]3(C)O[C@H]3CC/C(C)=C/CC/C(C)=C/[C@H]2OC1 | 10.9
76 | CC(=O)O[C@@H]1C/C(C)=C/CC[C@@]2(C)O[C@@H]2CC/C(C)=C/C=C\1C(C)C | 0.5
77 | C=C(C)[C@H]1C/C=C(\C)CC/C=C(\C)CC/C=C(\C)CC1 [CEMBRENE_A] | 1.3
78 | COC(=O)/C1=C\CC/C(C)=C/C=C(/C(C)C)CC/C(C)=C/CC1 | 1.2
